Measured values from US20090082337A1, “Compositions Comprising Quinolone and Methods for Treating or Controlling Infections” (priority 2007, published 2009).
In brackets after ≈: the same amount, converted by molar mass. Like-named read-outs stand apart in the source and are kept apart here.

How the values were obtained:
[1] = tested on: Peptostreptococcus micros (GIFU 7824); assay: In vitro anti-bacterial activity (MIC90), anaerobic bacteria; type: cell-based; conditions: Parvimonas micra, anaerobic reference bacteria
[2] = tested on: Clostridium perfringens (KZ 210); assay: microbe, parasite or virus in culture; type: cell-based
[3] = tested on: Bacteroides thetaiotaomicron (GAI 0659); assay: In vitro anti-bacterial activity (MIC90), anaerobic bacteria; type: cell-based
[4] = tested on: Peptostreptococcus magnum (GAI 0664); assay: as above; type: cell-based; conditions: anaerobic reference bacteria
[5] = tested on: Salmonella typhimurium (TD); assay: In vitro anti-bacterial activity (MIC90), Gram-negative bacteria; type: cell-based; conditions: Salmonella enterica, Gram-negative reference strain
Procedure: Anti-bacterial activity of the compound having Formula IV was tested against several Gram-negative reference bacteria strains and compared to the anti-bacterial activity of three commercially available antibiotics (nadifloxacin, ofloxacin, and sparfloxacin).

[6] = tested on: Propionibacterium acnes (GAI 5419); assay: In vitro anti-bacterial activity (MIC90), anaerobic bacteria; type: cell-based; conditions: Cutibacterium acnes, anaerobic reference bacteria
[7] = tested on: Propionibacterium acnes (ATCC 11828); assay: as above; type: cell-based; conditions: Cutibacterium acnes, ATCC11828, anaerobic reference bacteria
[8] = tested on: Proteus mirabilis (IFO 13300); assay: In vitro anti-bacterial activity (MIC90), Gram-negative bacteria; type: cell-based; conditions: IFO13300, Gram-negative reference strain
Procedure: (§1) In yet another aspect, said another quinolone has a MIC90 value for a Gram-negative bacterium that is lower than that of the fluoroquinolone having Formula I, II, III, IV, V, VI, VII, or VIII for the same bacterium, said fluoroquinolone being included in the composition. MIC90 is the minimum concentration of the active compound required to inhibit ninety percent of the growth of a specified pathogen, in μg/ml.
(§2) Anti-bacterial activity of the compound having Formula IV was tested against several Gram-negative reference bacteria strains and compared to the anti-bacterial activity of three commercially available antibiotics (nadifloxacin, ofloxacin, and sparfloxacin). The results are shown in Table 2 as MIC90 values (minimum concentration of the active compound required to inhibit ninety percent of the growth of a specified pathogen, in μg/ml).

Escherichia coli (O-1) = assay: as above; type: cell-based; conditions: Gram-negative reference strain
Procedure: as §1, §2

[9] = tested on: Klebsiella pneumoniae (IFO 13541); assay: as above; type: cell-based; conditions: IFO13541, Gram-negative reference strain
Procedure: as §1, §2

[10] = tested on: Acinetobacter calcoaceticus (IFO 12552); assay: as above; type: cell-based; conditions: IFO12552, Gram-negative reference strain
Procedure: as §1, §2

Corynebacterium species = assay: In vitro anti-bacterial activity (MIC90), ophthalmologic clinical bacteria isolates; type: cell-based; conditions: Gram-positive
Description: As disclosed above, most of these bacteria strains are also relevant to infections of the ear and upper respiratory tract.

Staphylococcus aureus = assay: as above; type: cell-based; conditions: Gram-positive
Pseudomonas aeruginosa = assay: as above; type: cell-based; conditions: Gram-negative
[11] = tested on: Gentamycin-resistant Staphylococcus aureus; assay: as above; type: cell-based; conditions: antibiotic-resistant organisms
[12] = tested on: Coagulase-negative Staphylococcus; assay: as above; type: cell-based; conditions: Gram-positive
[13] = tested on: Gentamycin-resistant Pseudomonas aeruginosa; assay: as above; type: cell-based; conditions: antibiotic-resistant organisms
[14] = tested on: Ofloxacin-resistant Staphylococcus aureus; assay: as above; type: cell-based; conditions: antibiotic-resistant organisms
Propionibacterium acnes = assay: as above; type: cell-based; conditions: Cutibacterium acnes, Gram-positive
Moraxella species = assay: as above; type: cell-based; conditions: Gram-negative
Haemophilus influenzae = assay: as above; type: cell-based; conditions: Gram-negative
[15] = tested on: Penicillin-resistant Streptococcus pneumoniae; assay: as above; type: cell-based; conditions: antibiotic-resistant organisms
Streptococcus pneumoniae = assay: as above; type: cell-based; conditions: Gram-positive
[16] = Stability of the compound having Formula IV in solution; type: physicochemical; conditions: for remaining amount of the compound in solution: initial concentration 100 μg/ml
Description: The stability of the compound having Formula IV in solution is shown in Table 7, as the remaining amount (expressed as the percentage of the initial amount) of the compound after selected times. The compound is stable in the pH range of most interest for the present invention.

E. coli (ATCC 25922) = assay: MICs of compound having Formula IV and ciprofloxacin alone and in combination; type: cell-based; conditions: Escherichia coli, ATCC25922, alone, read-out: MIC, drug alone
Procedure: (§3) Compositions having various combinations of concentrations of compound having Formula IV and cirprofloxacin were tested systematically against S. aureus, P. aeruginosa, and E. coli.

S. aureus (ATCC 29213) = assay: as above; type: cell-based; conditions: Staphylococcus aureus, ATCC29213, alone, read-out: MIC, drug alone
Procedure: as §3

[17] = tested on: P. aeruginosa (ATCC 27853); assay: as above; type: cell-based; conditions: Pseudomonas aeruginosa, ATCC27853, alone, read-out: MIC, drug alone
Procedure: as §3

For `CC1CCc2c(N3CCC(O)CC3)c(F)cc3c(=O)c(C(=O)O)cn1c23` (stereo not drawn) [Nadifloxacin, nadifloxacin], the MIC90 [1] was 0.39 µg/mL (≈ 1.08 µM), the MIC90 [2] was 0.2 µg/mL (≈ 0.555 µM) and the MIC90 ([3]; Bacteroides thetaiotaomicron) was 1.56 µg/mL (≈ 4.33 µM). For the same compound, the MIC90 [4] was 0.2 µg/mL (≈ 0.555 µM), the MIC90 [5] was 0.2 µg/mL (≈ 0.555 µM) and the MIC90 [6] was 0.2 µg/mL (≈ 0.555 µM). The MIC90 [7] was 0.78 µg/mL (≈ 2.16 µM), the MIC90 [8] was 0.1 µg/mL (≈ 0.277 µM) and the MIC90 (Escherichia coli (O-1)) was 0.2 µg/mL (≈ 0.555 µM). For the same compound, the MIC90 [9] was 0.1 µg/mL (≈ 0.277 µM) and the MIC90 [10] was 0.78 µg/mL (≈ 2.16 µM).

`CC1COc2c(N3CCN(C)CC3)c(F)cc3c(=O)c(C(=O)O)cn1c23` (stereo not drawn) [Ofloxacin, ofloxacin] showed an MIC90 [1] of 0.78 µg/mL (≈ 2.16 µM), an MIC90 [2] of 0.78 µg/mL (≈ 2.16 µM) and an MIC90 (Corynebacterium species) of 32 µg/mL (≈ 88.6 µM). It also gave an MIC90 (Staphylococcus aureus) of 32 µg/mL (≈ 88.6 µM), an MIC90 ([3]; Bacteroides thetaiotaomicron) of 3.13 µg/mL (≈ 8.66 µM) and an MIC90 (Pseudomonas aeruginosa) of 4 µg/mL (≈ 11.1 µM). For the same compound, the MIC90 [4] was 0.39 µg/mL (≈ 1.08 µM), the MIC90 [11] was 128 µg/mL (≈ 354 µM) and the MIC90 [5] was 0.05 µg/mL (≈ 0.138 µM). It also gave an MIC90 [12] of 8 µg/mL (≈ 22.1 µM), an MIC90 [6] of 0.78 µg/mL (≈ 2.16 µM) and an MIC90 [13] of 64 µg/mL (≈ 177 µM). For the same compound, the MIC90 [7] was 1.56 µg/mL (≈ 4.32 µM), the MIC90 [14] was over 128 µg/mL and the MIC90 (Propionibacterium acnes) was 1 µg/mL (≈ 2.77 µM). For the same compound, the MIC90 (Moraxella species) was 0.13 µg/mL (≈ 0.36 µM), the MIC90 (Haemophilus influenzae) was at most 0.06 µg/mL and the MIC90 [8] was 0.05 µg/mL (≈ 0.138 µM). The MIC90 (Escherichia coli (O-1)) was 0.05 µg/mL (≈ 0.138 µM), the MIC90 [9] was 0.024 µg/mL (≈ 0.0664 µM) and the MIC90 [10] was 0.39 µg/mL (≈ 1.08 µM). For the same compound, the MIC90 [15] was 2 µg/mL (≈ 5.53 µM) and the MIC90 (Streptococcus pneumoniae) was 2 µg/mL (≈ 5.53 µM).

Compound `C[C@@H]1CN(c2c(F)c(N)c3c(=O)c(C(=O)O)cn(C4CC4)c3c2F)C[C@H](C)N1` [Sparfloxacin, sparfloxacin] has an MIC90 [1] of 0.78 µg/mL (≈ 1.99 µM), an MIC90 [2] of 0.39 µg/mL (≈ 0.994 µM) and an MIC90 ([3]; Bacteroides thetaiotaomicron) of 0.78 µg/mL (≈ 1.99 µM). For the same compound, the MIC90 [4] was 0.1 µg/mL (≈ 0.255 µM), the MIC90 [5] was 0.012 µg/mL (≈ 0.0306 µM) and the MIC90 [6] was 0.39 µg/mL (≈ 0.994 µM). The MIC90 [7] was 0.78 µg/mL (≈ 1.99 µM), the MIC90 [8] was 0.1 µg/mL (≈ 0.255 µM) and the MIC90 (Escherichia coli (O-1)) was 0.012 µg/mL (≈ 0.0306 µM). It also gave an MIC90 [9] of 0.012 µg/mL (≈ 0.0306 µM) and an MIC90 [10] of 0.024 µg/mL (≈ 0.0612 µM).

In the case of `N[C@@H]1CCCCN(c2c(F)cc3c(=O)c(C(=O)O)cn(C4CC4)c3c2Cl)C1` [Compound Having Formula IV], the MIC90 [1] was 0.2 µg/mL, the MIC90 [2] was 0.2 µg/mL and the MIC90 (Corynebacterium species) was 2 µg/mL. It also gave an MIC90 (Staphylococcus aureus) of 1 µg/mL, an MIC90 ([3]; Bacteroides thetaiotaomicron (GAI 0659), anaerobic reference bacteria, read-out: MIC90) of 0.2 µg/mL and an MIC90 (Pseudomonas aeruginosa) of 4 µg/mL. The MIC90 [4] was 0.05 µg/mL, the MIC90 [11] was 4 µg/mL and the “remaining amount of the compound in solution” value (“remaining amount” below) ([16]; pH 3.5, 0 week) was 100 percentage of the initial amount. The “remaining amount” value ([16]; pH 3.5, 2 weeks) was 99.0 percentage of the initial amount, the “remaining amount” value ([16]; pH 3.5, 4 weeks) was 98.8 percentage of the initial amount and the “remaining amount” value ([16]; pH 4.0, 0 week) was 100 percentage of the initial amount. The “remaining amount” value ([16]; pH 4.0, 2 weeks) was 98.5 percentage of the initial amount, the “remaining amount” value ([16]; pH 4.0, 4 weeks) was 98.4 percentage of the initial amount and the “remaining amount” value ([16]; pH 4.5, 0 week) was 100 percentage of the initial amount. For the same compound, the “remaining amount” value ([16]; pH 4.5, 2 weeks) was 98.4 percentage of the initial amount, the “remaining amount” value ([16]; pH 4.5, 4 weeks) was 98.4 percentage of the initial amount and the “remaining amount” value ([16]; pH 5.0, 0 week) was 100 percentage of the initial amount. The “remaining amount” value ([16]; pH 5.0, 2 weeks) was 98.2 percentage of the initial amount, the “remaining amount” value ([16]; pH 5.0, 4 weeks) was 98.8 percentage of the initial amount and the “remaining amount” value ([16]; pH 5.5, 0 week) was 100 percentage of the initial amount. The “remaining amount” value ([16]; pH 5.5, 2 weeks) was 96.8 percentage of the initial amount, the “remaining amount” value ([16]; pH 5.5, 4 weeks) was 96.8 percentage of the initial amount and the “remaining amount” value ([16]; pH 6.0, 0 week) was 100 percentage of the initial amount. For the same compound, the “remaining amount” value ([16]; pH 6.0, 2 weeks) was 96.3 percentage of the initial amount, the “remaining amount” value ([16]; pH 6.0, 4 weeks) was 98.0 percentage of the initial amount and the “remaining amount” value ([16]; pH 6.5, 0 week) was 100 percentage of the initial amount. The “remaining amount” value ([16]; pH 6.5, 2 weeks) was 95.3 percentage of the initial amount, the “remaining amount” value ([16]; pH 6.5, 4 weeks) was 95.6 percentage of the initial amount and the “stability in solution (in words)” value ([16]; pH range of most interest for the present invention) was “stable”. For the same compound, the MIC90 [5] was 0.05 µg/mL, the MIC90 [12] was 0.5 µg/mL and the MIC (E. coli (ATCC 25922)) was 0.12 µg/mL. It also gave an MIC (S. aureus (ATCC 29213)) of 0.03 µg/mL, an MIC [17] of 4 µg/mL and an MIC90 [6] of 0.2 µg/mL. For the same compound, the MIC90 [13] was 32 µg/mL, the MIC90 [7] was 0.39 µg/mL and the MIC90 [14] was 8 µg/mL. For the same compound, the MIC90 (Propionibacterium acnes) was 0.25 µg/mL, the MIC90 (Moraxella species) was 0.13 µg/mL and the MIC90 (Haemophilus influenzae) was at most 0.06 µg/mL. It also gave an MIC90 [8] of 0.1 µg/mL, an MIC90 (Escherichia coli (O-1)) of 0.1 µg/mL and an MIC90 [9] of 0.024 µg/mL. The MIC90 [10] was 0.39 µg/mL, the MIC90 [15] was 0.13 µg/mL and the MIC90 (Streptococcus pneumoniae) was 0.13 µg/mL.
